Values belong to the molecule of their own block, whether it stands above or below them.
Experiments:
[1] = test system: PQS-675-WT (RNA, G4) GGGCGGGCGGCCUGCAGGGACAUGGG; assay: fluorescence light-up; details: 150 mM K+, 10 mM Tris-HCl pH 7.5, 2 µM RNA
[2] = test system: PQS-675-Mut (RNA, single strand) GAGCGAGCGGCCUGCAGAGACAUGAG; assay: fluorescence light-up; details: 150 mM K+, 10 mM Tris-HCl pH 7.5, 2 µM RNA
[3] = test system: PQS-675-WT-FRET (RNA, G4) GGGCGGGCGGCCUGCAGGGACAUGGG; assay: FRET melting; details: 10 mM Tris-HCl pH 7.5, 1 µM PDS, 200 nM RNA
[4] = test system: PQS-675-Mut-biotin (RNA, single strand) GAGCGAGCGGCCUGCAGAGACAUGAG; assay: bio-layer interferometry; details: K+ (folded in 150 mM KCl); PBST (PBS, 0.01% Tween-20), 25 °C; PDS 0.5-8 µM; 1:1 model; RNA immobilised
[5] = test system: PQS-675-WT-biotin (RNA, G4) GGGCGGGCGGCCUGCAGGGACAUGGG; assay: bio-layer interferometry; details: K+ (folded in 150 mM KCl); PBST (PBS, 0.01% Tween-20), 25 °C; PDS 0.5-8 µM; 1:1 model; RNA immobilised
[6] = test system: PQS-675-Mut-FRET (RNA, single strand) GAGCGAGCGGCCUGCAGAGACAUGAG; assay: FRET melting; details: 150 mM K+; 10 mM Tris-HCl pH 7.5; 1 µM PDS, 200 nM RNA; derived from two Tm (38.33, 38.03)
[7] = test system: PQS-675-WT (RNA, G4) GGGCGGGCGGCCUGCAGGGACAUGGG; assay: CD melting at 264 nm; details: 10 mM Tris-HCl pH 7.5, 5 µM RNA, PDS concentration not stated

binding ([1]; 2 µM NMM): yes | binding ([2]; 2 µM NMM, intensity decreased): weak
SMILES: CCc1c(C)c2cc3nc(cc4nc(cc5c(CC)c(C)c(cc1[nH]2)n5C)C(C)=C4CCC(=O)O)C(CCC(=O)O)=C3C

binding ([1]; 2 µM ThT): yes | binding ([2]; 2 µM ThT, decreased but still strong, non-specific): yes
SMILES: Cc1ccc2c(c1)sc(-c1ccc(N(C)C)cc1)[n+]2C

ΔTm ([3]; 150 mM K+, derived from two Tm (74.00, 77.48)): 3.48 °C | ΔTm ([3]; 150 mM Li+, derived from two Tm (63.27, 65.71)): 2.44 °C | KD [4]: 3.327 ± 7e-05 µM | KD [5]: 0.6049 ± 0.00284 µM | ΔTm [6]: -0.30 °C | ΔTm ([7]; 150 mM K+, derived from two Tm (70.00, 74.00)): 4.00 °C | ΔTm ([7]; 150 mM Li+, derived from two Tm (64.00, 64.00)): 0.00 °C
SMILES: NCCOc1cc(C(=O)Nc2cc(OCCN)c3ccccc3n2)nc(C(=O)Nc2cc(OCCN)c3ccccc3n2)c1

From article PMC8931161 (2022)
